Where no end group is shown, it is not given here.
Assays:
[1] = system: binding between p53 and mortalin (amino acid residues 1-435 or 105-435); test: competitive inhibition assay of p53-mortalin binding; settings: increasing amounts of competitor peptide
Excerpt: (C) The increase of the amounts of the peptide (comp. pep) corresponding to the mortalin amino acid residues 253-282 to be added reduced the […] the mortalin amino acid residues 1-435 (mot 1-435) and the peptide corresponding to mortalin amino acid residues 105-435 (mot 105-435). p53 was immunoprecipitated with the polyclonal anti-p53 antibody (CM-1) and detected by Western blotting with a monoclonal anti-p53 antibody (PAb 421)) (bands represented with an arrowhead). Co-immunoprecipitated mortalin was detected by Western blotting with anti-His tag antibody (indicated by arrows).
Next, a competitive inhibition assay was performed to confirm the involvement of this peptide of amino acid residues 253-282 in the binding to p53.

COS7 cells = test: localization of GFP-fused p53 fragments expressed in COS7 cells; assay type: cell-based; settings: COS7 cells transfected with GFP-fused protein
Excerpt: (B) A photograph showing the green fluorescence of GFP in COS7 cells transfected with (a) GFP alone, (b) GFP-p53 (amino acid residues 312-352), and (c) GFP-p53 (amino acid residues 312-319).
Since the in vitro translated product of a 43 kDa truncated p53, lacking the C terminus, lacks the ability to bind to mortalin protein as described in Example 1, it was presumed that this deleted region contains the region that is related to the binding to mortalin.

mortalin = test: immunoprecipitation of GFP-p53 fragments using anti-mortalin antibody; assay type: binding; settings: transfected cells, probed with anti-GFP antibody
Excerpt: (C) Mortalin was immunoprecipitated from cells transfected with GFP-tagged p53 fragments with polyclonal anti-mortalin antibodies, and was visualized with monoclonal antibodies. Immunocomplexes (Mot-IC) were also probed with monoclonal anti-GFP antibody to determine whether the p53 fusion proteins co-precipitate with mortalin (left panel). […] Bands corresponding to the IgG heavy and light chains are also detected on Mot-IC gel.

[2] = biological target: T1, full-length mouse wild-type p53 (Mus musculus, UniProt P02340); test: in vitro binding assay of mortalin protein and p53 protein (co-immunoprecipitation); settings: His-tagged recombinant mortalin, in vitro translated 35S-labeled p53, co-precipitation
T1 construct: mRNA encoding full-length mouse wild-type p53; made in house; host or cells: in vitro translation in rabbit reticulocyte lysate (Stratagene)
T1 sequence (P02340 whole entry): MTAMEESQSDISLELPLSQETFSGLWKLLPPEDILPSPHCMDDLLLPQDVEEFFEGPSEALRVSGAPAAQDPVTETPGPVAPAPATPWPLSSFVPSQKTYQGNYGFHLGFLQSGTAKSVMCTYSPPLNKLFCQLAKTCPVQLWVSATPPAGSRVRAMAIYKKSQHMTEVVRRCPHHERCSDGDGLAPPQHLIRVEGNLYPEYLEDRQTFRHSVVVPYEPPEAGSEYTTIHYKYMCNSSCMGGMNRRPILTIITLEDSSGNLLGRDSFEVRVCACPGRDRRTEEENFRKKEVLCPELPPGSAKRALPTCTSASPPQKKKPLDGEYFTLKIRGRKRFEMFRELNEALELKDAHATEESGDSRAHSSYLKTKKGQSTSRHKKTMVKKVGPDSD
Procedure: After preparing mRNA encoding full-length mouse wild-type p53 with a template of pSP65/p53 plasmid (Braithwaite, A. W. and Jenkins, J. R. (1989) J. Virol. 63, 1792-1799) using Transprobe T Kit (Pharmacia), [^35S]-labeled p53 protein was obtained by subjecting to in vitro translation reaction using rabbit reticulocyte lysate (Stratagene) for 1 hour in the presence of L-[^35S]methionine. After separating the translation products by SDS-PAGE, the translation reaction products were confirmed by autoradiography. The in vitro translated p53 protein was purified by immunoprecipitation with anti-p53 antibodies (PAb 421, PAb 1620 (Calbiochem), and PAb 122 (Boehringer-Mannheim)), and was used in the subsequent in vitro binding assays described below.
After preparing cDNAs encoding the recombinant mortalin protein (full-length) and various deletion mutants (described later) by PCR and converting them to a form to encode a His-tagged protein by inserting the cDNAs into pQE30 vector (Qiagen) the cDNAs were introduced into E. coli for expression. The resulting bacterial extracts were purified with Ni-NTA agarose (Qiagen). […] Then, p53 protein was detected by autoradiography; mortalin and deletion mutants thereof were detected by Western blotting with anti-His antibody and ECL-chemiluminescence (Amersham).

[3] = system: p53-dependent transcriptional activation; test: p53-dependent luciferase reporter analysis in p53-/- mouse embryonic fibroblasts; assay type: cell-based; settings: p53-/- MEF, PG13-luc type reporter, temperature-sensitive p53 at 32.5° C.
Excerpt: After preparing cDNAs that encode mutant mortalin proteins missing each of the functions shown in FIG. 3A and mortalin proteins point mutated at two different amino acid residues between mot-1 and mot-2 according to the method described in Example 1, the cDNAs were used for p53-dependent reporter analysis. Specifically, cells obtained by stable transfection of plasmid […], wherein the firefly luciferase gene has been linked to p53 responsive promoter (having the promoter sequence “[…]” and expresses the gene downstream of that sequence as a result of binding with p53 protein), and temperature-sensitive mutant p53 protein expression vector pMSVp53Val135 into mouse embryonic fibroblasts deficient in functional p53 gene (P53−/−MEF) (see, Wadhwa, R. et al. (1998) J. Biol. Chem. 273, 29586-29591) were transfected with various mortalin mutant protein expression vectors and pRL-CMV, serving as an internal control for standardizing transcription efficiency. After incubation at 32.5° C., which is an allowable temperature for the mutant p53 protein, the luciferase activity was measured.

[4] = system: p53-dependent transcriptional activation; test: p53 responsive β-gal reporter assay by microinjection into Saos2 cells; assay type: cell-based, human; settings: for β-Gal Staining: Percent of Blue cells / β-Gal Staining: Blue cells: Saos2, microinjected with pMSV p53 and p53 β-gal rep.
Excerpt: (C) The p53 activity detected for the p53 responsive β-galactosidase reporter construct was inhibited when a plasmid encoding mot-2 (b and i) , mut-11 (d and K), or mutant V16M (f and m) was simultaneously microinjected with the p53 expression plasmid. […] Microinjected cells were visualized by staining with FITC-labeled anti-rabbit IgG (a-g).
Similar results were obtained according to an experiment wherein the above mutant mortalin proteins, temperature-sensitive mutant p53 protein, and p53 responsive β-gal reporter gene pRGCΔfos-lacZ were introduced into a human osteosarcoma cell line Saos2 by microinjection.

**Q.** “253-282: peptide corresponding to the mortalin amino acid residues 253-282” was tested. Which “inhibition of binding between p53 and mortalin” value [1] did it give?
**A.** inhibited binding between p53 and mortalin

**Q.** Which “expressed proteins localized to the vicinity of the nucleus” value (COS7 cells) does the source give for “GFP-p53 (amino acid residues 312-352): green fluorescent protein fused with p53 amino acid residues 312-352 ({GFP}-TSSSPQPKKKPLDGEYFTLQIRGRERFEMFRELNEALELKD; UniProt P04637 312-352, looked up, fragment)” here?
**A.** about 90%

**Q.** What about the “binding to mortalin (co-precipitation)” value (mortalin) of the same substance?
**A.** confirmed to bind to mortalin

**Q.** Which “binding to mortalin (co-precipitation)” value (mortalin) does the source give for “GFP-p53 (amino acid residues 372-390): green fluorescent protein fused with p53 amino acid residues 372-390 ({GFP}-KKGQSTSRHKKLMFKTEGP; UniProt P04637 372-390, looked up, fragment)” here?
**A.** no precipitation

**Q.** For “mot-1: mortalin protein cloned from normal mouse cells; differs from mot-2 by two amino acids (residues 618 and 624)”, which “binding with full-length p53 protein” value [2] is on record?
**A.** specifically bound

**Q.** And the “inhibition of p53-dependent transcriptional activation (luciferase activity)” value [3]?
**A.** did not have any effect

**Q.** What about the “β-Gal Staining: Percent of Blue cells” value [4] of the same substance?
**A.** 88%

**Q.** What about the “β-Gal Staining: Blue cells” value ([4]; with Anti-mot IgG) of the same substance?
**A.** 83

**Q.** And the “β-Gal Staining: Percent of Blue cells” value ([4]; with Anti-mot IgG)?
**A.** 90%

**Q.** And the “β-Gal Staining: Blue cells” value ([4]; number of blue cells among transfected cells)?
**A.** 52

**Q.** And the “effect on p53-dependent transcriptional activation (β-gal reporter)” value ([4]; Saos2, microinjection)?
**A.** did not have a significant effect

From US20030087263A1, “Method of screening remedy for cancer with the use of interaction domain of p53 and mortalin” (priority 1999, published 2003)
